Values of other authors as cited in patent US10507185B2, “Composite structural material and pharmaceutical composition thereof” (INNOVACO PHARMACEUTICALS, INC, priority 2013, dated 2019).

pKa value: 4.6
Compound: CC(C)n1c(/C=C/C(O)CC(O)CC(=O)O)c(-c2ccc(F)cc2)c2ccccc21 (stereo not shown) [Fluvastatin, fluvastatin]
